Tests used:
[1] = system: HeLa cells; test: Tumor cell growth arrest in culture, Alamar Blue assay (HeLa); assay type: cell-based; conditions: Homo sapiens, concentration at which total growth inhibition occurred, 72 hours of treatment, triplicate
Experimental: (§1) The ability of test compounds to arrest the growth of tumor cells in culture was evaluated using HeLa cells, derived from a human cervical adenocarcinoma, and obtained from the American Type Culture Collection (ATCC, Rockville, Md.). Cells were grown in culture in the usual way. Test compounds were dosed in triplicate at concentrations ranging from 5 μM to 50 μM, and the cellular growth rate was calculated by harvesting the cells after 72 hours of treatment and measuring their metabolic activity using an Alamar Blue assay (Biosource International, Camarillo, Calif.). The degree of metabolic activity in the culture is proportional to the number of living cells. See, Ahmed et al., J. Immunol. Methods 1994, 170, 211. The change in growth rate for cells treated with test compounds was normalized to the growth of untreated cells and a plot of normalized cellular growth vs. compound concentration was made. The concentration at which total growth inhibition (TGI) occurred was determined. Compounds were similarly evaluated for cell growth inhibition using MCF-7/ ADR cells.

[2] = system: MCF-7/ADR cells; test: Cell growth inhibition (MCF-7/ADR), evaluated similarly; assay type: cell-based; conditions: Homo sapiens, NCI/ADR-RES, concentration at which total growth inhibition occurred
Experimental: as §1

For COc1ccc(NS(=O)(=O)c2c(F)c(F)c(F)c(F)c2F)cc1NC(N)=O [Compound 5], the IC (TGI) [1] was less than 5 µM, the IC (TGI) [2] was less than 5 µM and the melting point was 226 °C.

Work on CCOC(=O)CNC(=O)Nc1cc(NS(=O)(=O)c2c(F)c(F)c(F)c(F)c2F)ccc1OC [Compound 6] yielded an IC (TGI) [1] greater than 40 µM, an IC (TGI) [2] greater than 40 µM and a melting point of 164 to 170 °C.

COc1ccc(NS(=O)(=O)c2c(F)c(F)c(F)c(F)c2F)cc1NC(=O)n1nccc1N [Compound 7] showed an IC (TGI) [1] of less than 5 µM, an IC (TGI) [2] of less than 5 µM and a melting point of 140 to 144 °C.

COc1ccc(NS(=O)(=O)c2c(F)c(F)c(F)c(F)c2F)cc1NC(=O)NCc1ccco1 [Compound 8] gave an IC (TGI) [1] of less than 5 µM, an IC (TGI) [2] of less than 5 µM and a melting point of 208 °C.

For COc1ccc(NS(=O)(=O)c2c(F)c(F)c(F)c(F)c2F)cc1NC(=O)N1CCOCC1 [Compound 9], the IC (TGI) [1] was 5 to 40 µM and the IC (TGI) [2] was 5 to 40 µM.

COc1ccc(NS(=O)(=O)c2c(F)c(F)c(F)c(F)c2F)cc1NC(=O)NCC(O)CO (centres unmarked) [Compound 10] showed an IC (TGI) [1] of 5 to 40 µM and an IC (TGI) [2] of 5 to 40 µM.

Compound COc1ccc(NS(=O)(=O)c2c(F)c(F)c(F)c(F)c2F)cc1NC(=O)NCC(N)=O [Compound 11] has an IC (TGI) [1] greater than 40 µM and an IC (TGI) [2] greater than 40 µM.

For COc1ccc(NS(=O)(=O)c2c(F)c(F)c(F)c(F)c2F)cc1NC(=O)NC(CO)CO [Compound 12], the IC (TGI) [1] was greater than 40 µM and the IC (TGI) [2] was greater than 40 µM.

Work on COc1ccc(NS(=O)(=O)c2c(F)c(F)c(F)c(F)c2F)cc1NC(=O)NCCO [Compound 13] yielded an IC (TGI) [1] of 5 to 40 µM and an IC (TGI) [2] greater than 40 µM.

COc1ccc(NS(=O)(=O)c2c(F)c(F)c(F)c(F)c2F)cc1NC(=O)NCCCO [Compound 14] gave an IC (TGI) [1] of 5 to 40 µM and an IC (TGI) [2] greater than 40 µM.

With COc1ccc(NS(=O)(=O)c2c(F)c(F)c(F)c(F)c2F)cc1NC(=O)N(CCO)CCO [Compound 15] the IC (TGI) [1] was greater than 40 µM and the IC (TGI) [2] was greater than 40 µM.

COc1ccc(NS(=O)(=O)c2c(F)c(F)c(F)c(F)c2F)cc1NC(=O)Nc1ccccc1 [Compound 16] showed an IC (TGI) [1] of 5 to 40 µM and an IC (TGI) [2] greater than 40 µM.

With COc1ccc(NS(=O)(=O)c2c(F)c(F)c(F)c(F)c2F)cc1NC(=O)Nc1nccs1 [Compound 17] the IC (TGI) [1] was greater than 40 µM and the IC (TGI) [2] was greater than 40 µM.

COc1ccc(NS(=O)(=O)c2c(F)c(F)c(F)c(F)c2F)cc1NC(=O)n1ncnc1N [Compound 18] showed an IC (TGI) [1] of less than 5 µM and an IC (TGI) [2] of less than 5 µM.

In the case of COc1ccc(NS(=O)(=O)c2c(F)c(F)c(F)c(F)c2F)cc1NC(=O)Nc1nnn[nH]1 [Compound 19], the IC (TGI) [1] was less than 5 µM and the IC (TGI) [2] was 5 to 40 µM.

With COc1ccc(NS(=O)(=O)c2c(F)c(F)c(F)c(F)c2F)cc1NC(=O)Nc1nncs1 [Compound 20] the IC (TGI) [1] was 5 to 40 µM and the IC (TGI) [2] was 5 to 40 µM.

Work on COCCNC(=O)Nc1cc(NS(=O)(=O)c2c(F)c(F)c(F)c(F)c2F)ccc1OC [Compound 21] yielded an IC (TGI) [1] of 5 to 40 µM and an IC (TGI) [2] greater than 40 µM.

Source: patent US7060718B2, “Arylsulfonanilide ureas” (Amgen Inc., priority 1998, dated 2006)
